Assay results as given in US8933142B2, “Low-extractable thioxanthones” (Lamberti Spa, priority 2010, dated 2015).

Key:
[1] = Photo DSC reactivity in tripropylene glycol diacrylate; conditions: for Peak height / ΔH (peak area): 0.1% w/w compound, 0.1% w/w EDB, LED 400 nm, 24.3 mW/cm^2; for ΔH of polymerization of isomer 3 relative to isomer 1: Photo DSC peak area; for ΔH of polymerization of isomer 3 relative to isomer 1 / Reactivity of isomer 3 relative to isomer 1: isomer 3 versus isomer 1; for Reactivity of isomer 3 relative to isomer 1: Photo DSC peak height
Description: Comparison of the reactivity of the 1 and 3 derivatives of thioxanthone by means of Photo DSC.
The compound of Example 1 (dodecyl 7-methyl-9-oxo-9H-thioxanthene-3-carboxylate) and the compound of Example 8 (dodecyl 7-methyl-9-oxo-9H-thioxanthene-1-carboxylate, comparative) were formulated and evaluated by PhotoDSC.
The compound of Example 5 (N,N-diisobutyl-7-methyl-9-oxo-9H-thioxanthene-3-carboxamide) and the compound of Example 7 (N,N-diisobutyl-7-methyl-9-oxo-9H-thioxanthene-1-carboxamide, comparative) were also formulated and compared by PhotoDSC.
The formulations were prepared dissolving in tripropylene glycol diacrylate the compounds described in the Examples 1, 8, 5 and 7 at a concentration of 0.1% w/w and EDB (Ethyl 4-dimethylamino-benzoate) at a concentration of 0.1% w/w.
About 1 mg of formulation (exactly weighted) was kept into a DSC aluminum panel and analyzed by a Mettler DSC1 calorimeter equipped with a 400 nm LED with a power of 450 mW. The LED was set in order to irradiate the formulation with an intensity of 24.3 mW/cm^2.
During the exposition to LED at 400 nm the heat developed from the polymerization of formulations prepared with the compounds described in the Examples 1, 8, 5 and 7 was recorded as peak height and peak area (ΔH). The peak height is proportional to the rate of polymerization: higher is the peak—faster is the polymerization.

[2] = Through-cure (thumb twist test), as sensitizer; conditions: 0.5% thioxanthone derivative, 3% Esacure A 198, 3% Esacure 1001, cyan ink, 3 μm on coated cardboard, Hg lamp 120 W/cm
Method: (§1) Evaluation of “Through-Cure”
(§2) The “through cure” test evaluates the degree of cross-linking of the deeper layers of the formulate (film) spread on the substrate. The film is considered completely crosslinked when it is not detached from the substrate or damaged by the “thumb twist test”. The test is carried out at various speeds of exposure to UV source. The higher the speed the higher the reactivity of the system.
(§3) The products described in the examples were tested both as photoinitiators and sensitizers. For the evaluation as photoinitiator the following formulation is employed (by weight): 3% of derivative of thioxanthone of formula I, 3% of Esacure A 198, up to 100% with cyan ink for off-set printing. For the evaluation as sensitizers the formulation is composed as follows (by weight): 0.5% of derivative of thioxanthone of formula I, 3% of Esacure A 198, 3% of Esacure 1001, up to 100% with cyan ink for off-set printing.
(§4) The resulting mixtures are milled with a three cylinders mill (laboratory scale) and applied on a coated cardboard with a thickness of 3 μm by means of film coater (RK Print Coater Instrument Ltd), then exposed at different speed to a mercury vapors lamp at high pressure 120 W/cm.
(§5) ITX, in the same amounts, is chosen as reference.

[3] = Through-cure (thumb twist test), as photoinitiator; conditions: 3% thioxanthone derivative, 3% Esacure A 198, cyan ink, 3 μm on coated cardboard, Hg lamp 120 W/cm
Method: as §1, §2, §3, §4, §5

[4] = FT-IR degree of polymerization in a pigmented photopolymerizable composition (as photoinitiator); conditions: 3% photoinitiator, 3% Esacure A198, cyan ink, 3 μm film, Hg/Xe lamp 120 W/cm
Method: Evaluation of the Derivatives of Thioxanthone in a Pigmented Photopolymerizable Composition by Means of FT-IR.
Pigmented photopolymerizable compositions are prepared by mixing 3% by weight of both the photoinitiators of formula I (Examples 1-6) and the coinitiator Esacure A198 (bis-N,N-[4-dimethyl aminobenzoyl)oxyethylen-1-yl]-methylamine), commercialized by Lamberti S.p.A, and up to 100% by weight of a cyan ink for off-set inking.
Isopropyl thioxanthone (ITX) is chosen as reference photoinitiator.
The photopolymerizable compositions are milled with a three cylinders mill (laboratory scale) in order to homogenize the mix and applied with a thickness of 3 μm on a soft polyethylene substrate by means of a film coater (RK Print Coater Instrument Ltd).
The sample, placed in the sample lodgment of a FT-IR (FT-IR 430-Jasco), is exposed to a Mercury/Xenon Vapors light source at high pressure to 120 W/cm (L8868 Light-cure, Hamamatsu) set at a distance of 8 cm from the sample and at an angle of 30°.
IR spectra are acquired at constant time intervals during the photopolymerization and the reduction over time of the peak area at 1408 cm^−1 assigned to the acrylic double bond was determined by IR software (Perkin Elmer, Spectrum ONE v. 2.0). This allows to quantify the degree of polymerization over the time and therefore the efficiency of the photoinitiator.

[5] = Formulability through solubility in methylene chloride; conditions: room temperature, stirring
Method: 10 g of the thioxanthone derivatives under investigation are weighed and suspended in the same amount of solvent; the mixture is maintained under stirring at room temperature.
After 2 min the clearness of the solution is evaluated: if the sample is not dissolved further aliquots of solvent are added, keeping the mixture under stirring for two min after each addition until complete solubilization.

[6] = FT-IR degree of polymerization in a pigmented composition (as sensitizer of Esacure 1001); conditions: 0.5% sensitizer, 3% Esacure 1001, 3% Esacure A 198, cyan ink, 3 μm film
Method: The compounds described in the examples were evaluated also as sensitizer in a pigmented composition as described below.
Pigmented photopolymerizable compositions are prepared by mixing 3% by weight of both Esacure 1001 and coinitiator Esacure A 198 (both commercialized by Lamberti S.p.A.), 0.5% by weight of derivatives of thioxanthone of the Examples listed in Table 1 and up to 100% by weight of a cyan ink for off-set inking. ITX is used as reference sensitizer.
The photopolymerizable compositions are milled with a three cylinders mill (laboratory scale) in order to homogenize the mix and applied with a thickness of 3 μm on a soft polyethylene substrate by means of film coater (RK Print Coater Instrument Ltd).
The sample, placed in the sample lodgment of a FT-IR (FT-IR 430-Jasco), is exposed to a Mercury/Xenon Vapors light source at high pressure to 120 W/cm (L8868 Light-cure, Hamamatsu) set at a distance of 8 cm from the sample with an angle of 30°.
IR spectra were acquired at constant time during the photopolymerization and the reduction over the time of the area of the peak at 1408 cm^−1 assigned to the acrylic double bond is determined with the help of a IR software (Perkin Elmer, Spectrum ONE v. 2.0).
This allows to quantify the degree of polymerization over time and therefore the efficiency of the photoinitiator.

**Q.** Which Peak height [1] does the source give for `Cc1ccc2sc3cccc(C(=O)N(CC(C)C)CC(C)C)c3c(=O)c2c1` [Example 7, N,N-diisobutyl-7-methyl-9-oxo-9H-thioxanthene-1-carboxamide] here?
**A.** 11.1 W/g

**Q.** And the “ΔH (peak area)” value [1]?
**A.** 111.4 J/g

**Q.** Which “Through-cure (sensitizer)” value [2] does the source give for `COC(=O)c1ccc2c(=O)c3cc(C)ccc3sc2c1` [Example 3, methyl 7-methyl-9-oxo-9H-thioxanthene-3-carboxylate] here?
**A.** Insoluble

**Q.** What about the “Through-cure (photoinitiator)” value [3] of the same compound?
**A.** Insoluble

**Q.** What about the “% degree of polymerization after 1 sec” value [4] of the same compound?
**A.** Insoluble

**Q.** And the “% degree of polymerization after 2 sec” value [4]?
**A.** Insoluble

**Q.** What about the “% degree of polymerization after 5 sec” value [4] of the same compound?
**A.** Insoluble

**Q.** What about the Solubility [5] of the same compound?
**A.** insoluble

**Q.** And the “% degree of polymerization after 1 sec” value [6]?
**A.** Insoluble

**Q.** And the “% degree of polymerization after 2 sec” value [6]?
**A.** Insoluble

**Q.** And the “% degree of polymerization after 5 sec” value [6]?
**A.** Insoluble

**Q.** What does the source list for `Cc1ccc2sc3cc(C(=O)N(CC(C)C)CC(C)C)ccc3c(=O)c2c1` [Example 5, N,N-disobutyl 7-methyl-9-oxo-9H-thioxanthene-3-carboxamide]?
**A.** Through-cure (sensitizer) [2]: 60 m/min; Through-cure (photoinitiator) [3]: 90 m/min; % degree of polymerization after 1 sec [4]: 18.0%; % degree of polymerization after 2 sec [4]: 33.7%; % degree of polymerization after 5 sec [4]: 45.9%; Solubility [5]: 50%; Peak height [1]: 39.0 W/g; ΔH (peak area) [1]: 224.8 J/g; ΔH of polymerization of isomer 3 relative to isomer 1 [1]: about 2; Reactivity of isomer 3 relative to isomer 1 [1]: 3.5 times; % degree of polymerization after 1 sec [6]: 22.3%; % degree of polymerization after 2 sec [6]: 36.7%; % degree of polymerization after 5 sec [6]: 45.8%

**Q.** For `CC(C)c1ccc2sc3ccccc3c(=O)c2c1` [ITX, isopropyl thioxanthone, reference compound], which “Through-cure (sensitizer)” value [2] is on record?
**A.** 60 m/min

**Q.** And the “Through-cure (photoinitiator)” value [3]?
**A.** 95 m/min

**Q.** And the “% degree of polymerization after 1 sec” value [4]?
**A.** 10.0%

**Q.** And the “% degree of polymerization after 2 sec” value [4]?
**A.** 18.9%

**Q.** And the “% degree of polymerization after 5 sec” value [4]?
**A.** 33.0%

**Q.** And the “% degree of polymerization after 1 sec” value [6]?
**A.** 19.6%

**Q.** What about the “% degree of polymerization after 2 sec” value [6] of the same compound?
**A.** 31.4%

**Q.** What about the “% degree of polymerization after 5 sec” value [6] of the same compound?
**A.** 40.9%

**Q.** Which Solubility [5] does the source give for `Cc1ccc2sc3cc(C(=O)N4CCN(C)CC4)ccc3c(=O)c2c1` [Example 6, 4-methyl-piperazinyl 7-methyl-9-oxo-9H-thioxanthene-3-carboxamide] here?
**A.** 5%

**Q.** Which “Through-cure (sensitizer)” value [2] does the source give for `C=CCOC(=O)c1ccc2c(=O)c3cc(C)ccc3sc2c1` [Example 4, allyl 7-methyl-9-oxo-9H-thioxanthene-3-carboxylate] here?
**A.** 60 m/min

**Q.** What about the “Through-cure (photoinitiator)” value [3] of the same compound?
**A.** 70 m/min

**Q.** And the “% degree of polymerization after 1 sec” value [4]?
**A.** 5.9%

**Q.** What about the “% degree of polymerization after 2 sec” value [4] of the same compound?
**A.** 18.3%

**Q.** And the “% degree of polymerization after 5 sec” value [4]?
**A.** 35.3%

**Q.** And the Solubility [5]?
**A.** 5%

**Q.** And the “% degree of polymerization after 1 sec” value [6]?
**A.** 20.6%

**Q.** What about the “% degree of polymerization after 2 sec” value [6] of the same compound?
**A.** 33.2%

**Q.** What about the “% degree of polymerization after 5 sec” value [6] of the same compound?
**A.** 43.2%

**Q.** What does the source list for `CCCCCCCCCCCCOC(=O)c1ccc2c(=O)c3cc(C)ccc3sc2c1` [Example 1, dodecyl-7-methyl-9-oxo-9H-thioxanthene-3-carboxylate]?
**A.** Through-cure (sensitizer) [2]: 53 m/min; Through-cure (photoinitiator) [3]: 85 m/min; % degree of polymerization after 1 sec [4]: 19.6%; % degree of polymerization after 2 sec [4]: 36.1%; % degree of polymerization after 5 sec [4]: 47.2%; Solubility [5]: 33%; Peak height [1]: 58.9 W/g; ΔH (peak area) [1]: 266.4 J/g; ΔH of polymerization of isomer 3 relative to isomer 1 [1]: 1.2; Reactivity of isomer 3 relative to isomer 1 [1]: about 1.5 times; % degree of polymerization after 1 sec [6]: 17.8%; % degree of polymerization after 2 sec [6]: 29.9%; % degree of polymerization after 5 sec [6]: 40.7%

**Q.** Which results are given for `CCCCCCCCCCCCOC(=O)c1cccc2sc3ccc(C)cc3c(=O)c12` [Example 8, dodecyl 7-methyl-9-oxo-9H-thioxanthene-1-carboxylate]?
**A.** Peak height [1]: 38.4 W/g; ΔH (peak area) [1]: 208.5 J/g

**Q.** For `CCCCCOC(=O)c1ccc2c(=O)c3cc(C)ccc3sc2c1` [Example 2, pentyl 7-methyl-9-oxo-9H-thioxanthene-3-carboxylate], which “Through-cure (sensitizer)” value [2] is on record?
**A.** Not reactive

**Q.** And the “Through-cure (photoinitiator)” value [3]?
**A.** 5 m/min

**Q.** And the “% degree of polymerization after 1 sec” value [4]?
**A.** 2.5%

**Q.** And the “% degree of polymerization after 2 sec” value [4]?
**A.** 3.1%

**Q.** And the “% degree of polymerization after 5 sec” value [4]?
**A.** 7.2%

**Q.** What about the Solubility [5] of the same compound?
**A.** 33%

**Q.** And the “% degree of polymerization after 1 sec” value [6]?
**A.** Not reactive

**Q.** What about the “% degree of polymerization after 2 sec” value [6] of the same compound?
**A.** Not reactive

**Q.** What about the “% degree of polymerization after 5 sec” value [6] of the same compound?
**A.** Not reactive
